Reference: ChEMBL document CHEMBL6078687 (J Med Chem, 2024)

Key:
[1] = Inhibition of neuraminidase in Influenza A virus A/Babol/36/2005 H3N2 using MUNANA as substrate incubated for 40 mins by […] based assay
[2] = Inhibition of neuraminidase in Influenza A virus A/Goose/Guangdong/SH7/2013 H5N1 using MUNANA as substrate incubated for 40 mins by […] based assay
[3] = Cytotoxicity against CEF cells incubated for 48 hrs by CCK8 assay; assay type: toxicity, cell-based, Gallus gallus; settings: chicken
Influenza A virus [4] = experiment: microbe, parasite or virus in culture; settings: A/PR/8/34 H1N1, MDCK, 48 h
Influenza A virus [5] = experiment: microbe, parasite or virus in culture; settings: A/Goose/Jiangsu/1306/2014 H5N8, CEF, 48 h
Influenza A virus [6] = experiment: Antiviral activity against Influenza A virus A/WSN/67/05 H3N2 infected in MDCK cells assessed as inhibition of plaque formation measured after 2 days; settings: A/WSN/67/05 H3N2, MDCK, 48 h
[7] = Cytotoxicity against MDCK cells incubated for 48 hrs by MTT assay; assay type: toxicity, cell-based, Canis lupus familiaris; settings: dog
Influenza A virus [8] = experiment: microbe, parasite or virus in culture; settings: A/Goose/Guangdong/SH7/2013 H5N1, CEF, 48 h
in vitro [9] = settings: human, liver microsomes
in vitro [10] = settings: human, liver microsomes; remark: listed apart in the source
in vitro [11] = settings: human, liver microsomes; remark: listed apart in the source
[12] = Metabolic stability in human liver microsomes assessed as compound remaining incubated for 60 mins by LC-MS/MS analysis; assay type: ADME, Microsome; settings: 1 h

| SMILES | IC50 [1] | IC50 [2] | further results |
| --- | --- | --- | --- |
| CCC(CC)O[C@@H]1C=C(C(=O)O)C[C@H](NCc2ccccc2OCc2ccc(B(O)O)cc2)[C@H]1NC(C)=O | 8.48 µM | 1.29 µM |  |
| CCC(CC)O[C@@H]1C=C(C(=O)O)C[C@H](NCc2cc(C)c(OCc3cccc(B(O)O)c3)c(C)c2)[C@H]1NC(C)=O | 8.79 µM | 32.3 µM |  |
| CCC(CC)O[C@@H]1C=C(C(=O)O)C[C@H](NCc2ccc(Oc3ccc(B(O)O)cc3)cc2)[C@H]1NC(C)=O | 1.45 µM | 0.036 µM |  |
| CCC(CC)O[C@@H]1C=C(C(=O)O)C[C@H](NCc2ccc(OCc3cccc(B(O)O)c3)c(Cl)c2)[C@H]1NC(C)=O | 6.66 µM | 2.78 µM |  |
| CCC(CC)O[C@@H]1C=C(C(=O)O)C[C@H](NCc2ccc(OCc3ccc(B(O)O)cc3)cc2F)[C@H]1NC(C)=O | 0.4 µM | 0.087 µM | CC50 at 48 h [3]: > 500 µM; EC50 (Influenza A virus [4]): 0.029 µM; EC50 (Influenza A virus [5]): 3.97 µM; EC50 (Influenza A virus [6]): 18.5 µM; EC50 at 48 h [7]: > 250 µM; EC50 (Influenza A virus [8]): 1.59 µM |
| CCC(CC)O[C@@H]1C=C(C(=O)O)C[C@H](NCc2c(C)cc(OCc3cccc(B(O)O)c3)cc2C)[C@H]1NC(C)=O | 0.65 µM | 0.024 µM | CC50 at 48 h [3]: > 200 µM; EC50 (Influenza A virus [4]): 0.014 µM; EC50 (Influenza A virus [5]): 9.12 µM; EC50 (Influenza A virus [6]): > 100 µM; EC50 at 48 h [7]: > 250 µM; EC50 (Influenza A virus [8]): 2.54 µM |
| CCC(CC)O[C@@H]1C=C(C(=O)O)C[C@H](NCc2ccc(OCc3ccc(B(O)O)cc3)c(F)c2)[C@H]1NC(C)=O | 0.65 µM | 0.1 µM |  |
| CCC(CC)O[C@@H]1C=C(C(=O)O)C[C@H](NCc2cccc(C(=O)Nc3ccc(B(O)O)cc3)c2)[C@H]1NC(C)=O | 6.66 µM | 1.05 µM |  |
| CC(C)NCC(O)COc1cccc2ccccc12 (stereo not drawn) [PROPRANOLOL] |  |  | remaining at 2 h (in vitro [9]): 0.5% |
| CCC(CC)O[C@@H]1C=C(C(=O)O)C[C@H](NCc2ccc(Oc3cccc(B(O)O)c3)cc2)[C@H]1NC(C)=O | 0.76 µM | 0.14 µM |  |
| CCC(CC)O[C@@H]1C=C(C(=O)O)C[C@H](NCc2ccc(OCc3cccc(B(O)O)c3)cc2OC)[C@H]1NC(C)=O | 0.95 µM | 0.79 µM |  |
| CCC(CC)O[C@@H]1C=C(C(=O)O)C[C@H](NCc2cc(C)c(OCc3ccc(B(O)O)cc3)c(C)c2)[C@H]1NC(C)=O | 41.8 µM | 19 µM |  |
| CCC(CC)O[C@@H]1C=C(C(=O)O)C[C@H](NCc2cccc(OCc3ccccc3B(O)O)c2)[C@H]1NC(C)=O | 7.88 µM | 7.02 µM |  |
| CCC(CC)O[C@@H]1C=C(C(=O)O)C[C@H](NCc2ccc(-c3ccsc3)cc2OC)[C@H]1NC(C)=O | 8.46 µM | 1.5 µM |  |
| CCC(CC)O[C@@H]1C=C(C(=O)O)C[C@H](NCc2ccc(OCc3cccc(B(O)O)c3)c(F)c2)[C@H]1NC(C)=O | 1.83 µM | 0.073 µM |  |
| CCC(CC)O[C@@H]1C=C(C(=O)O)C[C@H](NCc2ccc(OCc3ccc(B(O)O)cc3)c(Cl)c2)[C@H]1NC(C)=O | 7.17 µM | 3.95 µM |  |
| CCC(CC)O[C@@H]1C=C(C(=O)O)C[C@H](NCc2cccc(C(=O)Nc3cccc(B(O)O)c3)c2)[C@H]1NC(C)=O | 0.23 µM | 0.41 µM |  |
| CCC(CC)O[C@@H]1C=C(C(=O)O)C[C@H](NCc2ccc(OCc3cccc(B(O)O)c3)c(C)c2)[C@H]1NC(C)=O | 11.5 µM | 8.09 µM |  |
| C[C@]12CC[C@H]3[C@@H](CCC4=CC(=O)CC[C@@]43C)[C@@H]1CC[C@@H]2O [TESTOSTERONE] |  |  | remaining at 2 h (in vitro [9]): 4.1% |
| CCC(CC)O[C@@H]1C=C(C(=O)O)C[C@H](NCc2ccc(OCc3cccc(B(O)O)c3)c(B(O)O)c2)[C@H]1NC(C)=O | 1.78 µM | 0.075 µM |  |
| CC(=O)N[C@H]1[C@H]([C@H](O)[C@H](O)CO)OC(C(=O)O)=C[C@@H]1NC(=N)N [ZANAMIVIR] | 0.038 µM |  |  |

| SMILES | IC50 [1] | IC50 [2] | further results |
| --- | --- | --- | --- |
| CCC(CC)O[C@@H]1C=C(C(=O)O)C[C@H](NCc2ccc(OCc3ccc(B(O)O)cc3)cc2OC)[C@H]1NC(C)=O | 0.51 µM | 1.75 µM |  |
| CCC(CC)O[C@@H]1C=C(C(=O)O)C[C@H](NCc2c(C)cc(OCc3ccc(B(O)O)cc3)cc2C)[C@H]1NC(C)=O | 0.74 µM | 0.27 µM |  |
| CCC(CC)O[C@@H]1C=C(C(=O)O)C[C@H](NCc2ccc(OCc3ccc(B(O)O)cc3)cc2C)[C@H]1NC(C)=O | 0.11 µM | 0.074 µM | CC50 at 48 h [3]: > 200 µM; EC50 (Influenza A virus [4]): 0.011 µM; EC50 (Influenza A virus [5]): 3.55 µM; EC50 (Influenza A virus [6]): 10.6 µM; EC50 at 48 h [7]: > 250 µM; EC50 (Influenza A virus [8]): 6.39 µM |
| CCC(CC)O[C@@H]1C=C(C(=O)O)C[C@H](NCc2ccc(OCc3cccc(B(O)O)c3)cc2Br)[C@H]1NC(C)=O | 0.47 µM | 0.081 µM |  |
| CCC(CC)O[C@@H]1C=C(C(=O)O)C[C@H](NCc2ccc(OCc3ccc(B(O)O)cc3)cc2Br)[C@H]1NC(C)=O | 0.34 µM | 0.071 µM |  |
| CCC(CC)O[C@@H]1C=C(C(=O)O)C[C@H](NCc2ccc(OCc3ccc(B(O)O)cc3)c(Br)c2)[C@H]1NC(C)=O | 17.1 µM | 933 µM |  |
| CCC(CC)O[C@@H]1C=C(C(=O)O)C[C@H](NCc2ccc(C(=O)Nc3cccc(B(O)O)c3)cc2)[C@H]1NC(C)=O | 17.1 µM | 1.17 µM |  |
| CCC(CC)O[C@@H]1C=C(C(=O)O)C[C@H](NCc2ccc(C(=O)Nc3ccc(B(O)O)cc3)cc2)[C@H]1NC(C)=O | 1.64 µM | 0.97 µM |  |
| O=C(O)Cc1ccccc1Nc1c(Cl)cccc1Cl [DICLOFENAC] |  |  | CLint scaled at 2 h (in vitro [10]): 200 mL/min/kg; microsomal CLint at 2 h (in vitro [11]): 222 µL/min/mg |
| CCC(CC)O[C@@H]1C=C(C(=O)O)C[C@H](N)[C@H]1NC(C)=O [OSELTAMIVIR CARBOXYLATE] | 0.009 µM | 0.061 µM | Stability [12]: 114.6%; CC50 at 48 h [3]: > 200 µM; CLint scaled at 2 h (in vitro [10]): 11.8 mL/min/kg; EC50 (Influenza A virus [4]): 0.056 µM; EC50 (Influenza A virus [5]): 8.64 µM; EC50 (Influenza A virus [6]): 0.75 µM; EC50 at 48 h [7]: > 250 µM; microsomal CLint at 2 h (in vitro [11]): 13.1 µL/min/mg; EC50 (Influenza A virus [8]): 1.79 µM |
| CCC(CC)O[C@@H]1C=C(C(=O)O)C[C@H](NCc2ccc(OCc3cccc(B(O)O)c3)c(OC)c2)[C@H]1NC(C)=O | 23.7 µM | 43.5 µM |  |
| CCC(CC)O[C@@H]1C=C(C(=O)O)C[C@H](NCc2cccc(OCc3cccc(B(O)O)c3)c2)[C@H]1NC(C)=O | 4.37 µM | 4.91 µM |  |
| CCC(CC)O[C@@H]1C=C(C(=O)O)C[C@H](NCc2ccc(OCc3ccc(B(O)O)cc3)cc2Cl)[C@H]1NC(C)=O | 0.12 µM | 0.022 µM | CC50 at 48 h [3]: > 200 µM; EC50 (Influenza A virus [4]): 0.03 µM; EC50 (Influenza A virus [5]): > 40 µM; EC50 (Influenza A virus [6]): 4.23 µM; EC50 at 48 h [7]: > 250 µM; EC50 (Influenza A virus [8]): 3.57 µM |
| CCC(CC)O[C@@H]1C=C(C(=O)O)C[C@H](NCc2cccc(OCc3ccc(B(O)O)cc3)c2)[C@H]1NC(C)=O | 3.31 µM | 1.16 µM |  |
| CCC(CC)O[C@@H]1C=C(C(=O)O)C[C@H](NCc2ccc(-c3cccs3)cc2OC)[C@H]1NC(C)=O | 2.1 µM | 1.65 µM |  |
| CCC(CC)O[C@@H]1C=C(C(=O)O)C[C@H](NCc2ccc(OCc3ccc(B(O)O)cc3)c(C)c2)[C@H]1NC(C)=O | 16.7 µM | 8.06 µM |  |
| CCC(CC)O[C@@H]1C=C(C(=O)O)C[C@H](NCc2ccc(OCc3ccc(B(O)O)cc3)c(OC)c2)[C@H]1NC(C)=O | 28.6 µM | 51.8 µM |  |
| CCC(CC)O[C@@H]1C=C(C(=O)O)C[C@H](NCc2ccc(OCc3cccc(B(O)O)c3)cc2F)[C@H]1NC(C)=O | 1.43 µM | 0.038 µM | CC50 at 48 h [3]: 170 µM; EC50 (Influenza A virus [4]): 0.026 µM; EC50 (Influenza A virus [5]): 6.88 µM; EC50 (Influenza A virus [6]): > 100 µM; EC50 at 48 h [7]: > 250 µM; EC50 (Influenza A virus [8]): 6.27 µM |
| CCC(CC)O[C@@H]1C=C(C(=O)O)C[C@H](NCc2ccccc2OCc2cccc(B(O)O)c2)[C@H]1NC(C)=O | 5.08 µM | 1.48 µM |  |
| CCC(CC)O[C@@H]1C=C(C(=O)O)C[C@H](NCc2ccc(OCc3cccc(B(O)O)c3)c(Br)c2)[C@H]1NC(C)=O | 14.1 µM | 6.93 µM |  |
